Results published in US10131652B2, “Pyrimidinyloxy benzene derivatives as herbicides” (E. I. DU PONT DE NEMOURS AND COMPANY, priority 2014, dated 2018).
Like-named read-outs stand apart in the source and are kept apart here.

Columns and labels:
Assay in all cases: Test F pre-/postemergence plant response
Assay type in all cases: in vivo
[1] = test system: giant foxtail (Setaria faberii); conditions: Setaria faberi, pre-emergence, scale 0 to 100, read-out: Plant response rating, Foxtail, Giant
Summary of the method: (§1)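 Two application timings were run side by side: soil surface treatment of freshly planted seed in silt loam, and foliar treatment of seedlings 2 to 18 cm high. Plants stayed in the greenhouse 14 to 21 days before visual 0–100 injury scoring against controls.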

[2] = test system: lambsquarters (Chenopodium album); conditions: Chenopodium album, pre-emergence, scale 0 to 100, read-out: Plant response rating, Lambsquarters
Summary of the method: as §1

[3] = test system: sandbur (southern sandbur, Cenchrus echinatus); conditions: Cenchrus echinatus, scale 0 to 100, read-out: Plant response rating, Sandbur
Summary of the method: as §1

[4] = test system: palmer pigweed (Amaranthus palmeri); conditions: Amaranthus palmeri, post-emergence, scale 0 to 100, read-out: Plant response rating, Pigweed, Palmer
Summary of the method: as §1

[5] = test system: morningglory (Ipomoea coccinea); conditions: Ipomoea, pre-emergence, scale 0 to 100, read-out: Plant response rating, Morningglory
Summary of the method: as §1

[6] = test system: waterhemp (common waterhemp, Amaranthus rudis); conditions: Amaranthus tuberculatus, scale 0 to 100, read-out: Plant response rating, Waterhemp
Summary of the method: as §1

[7] = test system: arrowleaf sida (Sida rhombifolia); conditions: Sida rhombifolia, scale 0 to 100, read-out: Plant response rating, Arrowleaf Sida
Summary of the method: as §1

[8] = test system: dayflower (Virginia (VA) dayflower, Commelina virginica); conditions: Commelina virginica, scale 0 to 100, read-out: Plant response rating, Dayflower, VA
Summary of the method: as §1

[9] = test system: barnyardgrass (Echinochloa crus-galli); conditions: Echinochloa crus-galli, scale 0 to 100, read-out: Plant response rating, Barnyardgrass
Summary of the method: as §1

[10] = test system: green foxtail (Setaria viridis); conditions: Setaria viridis, pre-emergence, scale 0 to 100, read-out: Plant response rating, Foxtail, Green
Summary of the method: as §1

[11] = test system: johnsongrass (Sorghum halepense); conditions: Sorghum halepense, pre-emergence, scale 0 to 100, read-out: Plant response rating, Johnsongrass
Summary of the method: as §1

[12] = post-emergence, 8 g ai/ha Postemergence
[13] = post-emergence, 16 g ai/ha Postemergence
[14] = post-emergence, 31 g ai/ha Postemergence
[15] = post-emergence, 62 g ai/ha Postemergence
[16] = post-emergence, 125 g ai/ha Postemergence
[17] = pre-emergence, 8 g ai/ha Preemergence
[18] = pre-emergence, 16 g ai/ha Preemergence
[19] = pre-emergence, 31 g ai/ha Preemergence
[20] = pre-emergence, 125 g ai/ha Preemergence
[21] = pre-emergence, 62 g ai/ha Preemergence

## FC(F)c1cc(-c2ccccc2Oc2ncc(Cl)cn2)no1 [Compound 35, 5-chloro-2-[2-[5-(difluoromethyl)-3-isoxazolyl]phenoxy]pyrimidine]
[1]; 8 g ai/ha Preemergence
  pest or weed control at 8 g/ha: 0%
[1]; 16 g ai/ha Preemergence
  pest or weed control at 16 g/ha: 10%
[1]; 31 g ai/ha Preemergence
  pest or weed control at 31 g/ha: 70%
[1]; 62 g ai/ha Preemergence
  pest or weed control at 62 g/ha: 70%
[1]; 125 g ai/ha Preemergence
  pest or weed control at 125 g/ha: 100%
[2]; 8 g ai/ha Preemergence
  pest or weed control at 8 g/ha: 90%
[2]; 16 g ai/ha, Preemergence
  pest or weed control at 16 g/ha: 98%
[2]; 31 g ai/ha, Preemergence
  pest or weed control at 31 g/ha: 100%
[2]; 125 g ai/ha, Preemergence
  pest or weed control at 125 g/ha: 100%
[2]; Preemergence
  pest or weed control at 62 g/ha: 100%
[3]; [12]
  pest or weed control at 8 g/ha: 0%
[3]; [13]
  pest or weed control at 16 g/ha: 0%
[3]; [14]
  pest or weed control at 31 g/ha: 0%
[3]; [15]
  pest or weed control at 62 g/ha: 0%
[3]; [16]
  pest or weed control at 125 g/ha: 0%
[3]; [17]
  pest or weed control at 8 g/ha: 0%
[3]; [18]
  pest or weed control at 16 g/ha: 10%
[3]; [19]
  pest or weed control at 31 g/ha: 10%
[3]; [20]
  pest or weed control at 125 g/ha: 65%
[3]; pre-emergence, Preemergence
  pest or weed control at 62 g/ha: 40%
[4]; 8 g ai/ha Postemergence
  pest or weed control at 8 g/ha: 60%
[4]; 16 g ai/ha Postemergence
  pest or weed control at 16 g/ha: 75%
[4]; 31 g ai/ha Postemergence
  pest or weed control at 31 g/ha: 95%
[4]; 62 g ai/ha Postemergence
  pest or weed control at 62 g/ha: 100%
[4]; 125 g ai/ha Postemergence
  pest or weed control at 125 g/ha: 100%
[5]; 8 g ai/ha Preemergence
  pest or weed control at 8 g/ha: 0%
[5]; 16 g ai/ha Preemergence
  pest or weed control at 16 g/ha: 0%
[5]; 31 g ai/ha Preemergence
  pest or weed control at 31 g/ha: 0%
[5]; 125 g ai/ha Preemergence
  pest or weed control at 125 g/ha: 65%
[5]; Preemergence
  pest or weed control at 62 g/ha: 30%
[6]; [12]
  pest or weed control at 8 g/ha: 70%
[6]; [13]
  pest or weed control at 16 g/ha: 85%
[6]; [14]
  pest or weed control at 31 g/ha: 90%
[6]; [15]
  pest or weed control at 62 g/ha: 100%
[6]; [16]
  pest or weed control at 125 g/ha: 100%
[6]; [17]
  pest or weed control at 8 g/ha: 100%
[6]; [18]
  pest or weed control at 16 g/ha: 100%
[6]; [19]
  pest or weed control at 31 g/ha: 100%
[6]; [20]
  pest or weed control at 125 g/ha: 100%
[6]; pre-emergence, Preemergence
  pest or weed control at 62 g/ha: 100%
[7]; [12]
  pest or weed control at 8 g/ha: 60%
[7]; [13]
  pest or weed control at 16 g/ha: 80%
[7]; [14]
  pest or weed control at 31 g/ha: 95%
[7]; [15]
  pest or weed control at 62 g/ha: 98%
[7]; [16]
  pest or weed control at 125 g/ha: 98%
[7]; [17]
  pest or weed control at 8 g/ha: 50%
[7]; [18]
  pest or weed control at 16 g/ha: 80%
[7]; [19]
  pest or weed control at 31 g/ha: 100%
[7]; [21]
  pest or weed control at 62 g/ha: 100%
[7]; [20]
  pest or weed control at 125 g/ha: 100%
[8]; [12]
  pest or weed control at 8 g/ha: 10%
[8]; [13]
  pest or weed control at 16 g/ha: 40%
[8]; [14]
  pest or weed control at 31 g/ha: 40%
[8]; [15]
  pest or weed control at 62 g/ha: 50%
[8]; [16]
  pest or weed control at 125 g/ha: 80%
[8]; [17]
  pest or weed control at 8 g/ha: 0%
[8]; [18]
  pest or weed control at 16 g/ha: 25%
[8]; [19]
  pest or weed control at 31 g/ha: 65%
[8]; [21]
  pest or weed control at 62 g/ha: 90%
[8]; [20]
  pest or weed control at 125 g/ha: 95%
[9]; [12]
  pest or weed control at 8 g/ha: 0%
[9]; [13]
  pest or weed control at 16 g/ha: 0%
[9]; [14]
  pest or weed control at 31 g/ha: 0%
[9]; [15]
  pest or weed control at 62 g/ha: 10%
[9]; [16]
  pest or weed control at 125 g/ha: 20%
[9]; [17]
  pest or weed control at 8 g/ha: 0%
[9]; [18]
  pest or weed control at 16 g/ha: 0%
[9]; [19]
  pest or weed control at 31 g/ha: 20%
[9]; [21]
  pest or weed control at 62 g/ha: 10%
[9]; [20]
  pest or weed control at 125 g/ha: 65%
[10]; 8 g ai/ha Preemergence
  pest or weed control at 8 g/ha: 0%
[10]; 16 g ai/ha, Preemergence
  pest or weed control at 16 g/ha: 0%
[10]; 31 g ai/ha, Preemergence
  pest or weed control at 31 g/ha: 30%
[10]; 125 g ai/ha, Preemergence
  pest or weed control at 125 g/ha: 98%
[10]; Preemergence
  pest or weed control at 62 g/ha: 75%
[11]; 8 g ai/ha Preemergence
  pest or weed control at 8 g/ha: 0%
[11]; 16 g ai/ha Preemergence
  pest or weed control at 16 g/ha: 0%
[11]; 31 g ai/ha Preemergence
  pest or weed control at 31 g/ha: 0%
[11]; 125 g ai/ha Preemergence
  pest or weed control at 125 g/ha: 65%
[11]; Preemergence
  pest or weed control at 62 g/ha: 35%
